Legend:
[1] = test system: C. difficile; experiment: C. difficile-infected hamster survival study; assay type: in vivo
Experimental: Animal studies were performed to determine the efficacy of MetRS inhibitors for treating C. difficile-infections. The MetRS inhibitors tested were 5-[3-((R)-6,8-Dibromo-chroman-4-ylamino)-propylamino]-4H-thieno[3,2-b]pyridine-7-one (both racemic mixture and the R enantiomer), 5-[3-((R)-8-Bromo-6-chloro-chroman-4-ylamino)-propylamino]-4H-thieno[3,2-b]pyridin-7-one, and 2-(3-{3,5-Dibromo-2-[2-(4-methyl-thiazol-5-yl)-ethoxy]-benzylamino}-propylamino)-1H-quinolin-4-one.
Results were compared to C. difficile-infected hamsters treated with the conventional antibiotic, vancomycin. Infected hamsters were treated with either a solution or suspension of a MetRS inhibitor at 5 to 50 mg/kg or vancomycin at 2.5, 5 or 25 mg/kg. There were eight hamsters per group with the final endpoint of the experiment being survival. Expired hamsters were examined for GI condition.

[2] = test system: C. difficile strain ATCC43255; experiment: Toxin A production in high cell density stationary phase C. difficile cultures (ELIFA); assay type: cell-based; conditions: 4 day old stationary phase cultures, toxin A by ELIFA
Experimental: C. difficile strain ATCC43255 was grown and maintained anaerobically on CDC anaerobe agar (Remel, Lenexa, Kans.). To test the effect of antibacterial agents on growth, cells were grown anaerobically for 40 h at 35° C. in 96-well brain heart infusion (BHI) broth cultures, with an initial inoculum of 10^6 CFU/mL. To test the effect of antibacterial agents on toxin production at high C. difficile cell densities, the cells were grown anaerobically for 24 h at 35° C. in 96-well brain heart infusion (BHI) broth cultures. Spent medium was then replaced with fresh broth containing MetRS inhibitors and control agents at a concentration range of 0.015-16 μg/mL. After 4 days, growth and cell viability were monitored by optical density measurements at 595 nm and by culture on CDC anaerobe agar, respectively. Culture supernatants were collected, and toxin A was detected by ELIFA (enzyme-linked immuno-flow assay) using an anti toxin A monoclonal antibody (Novus Biologicals, Centennial, Colo.).

Compound	concentrations that inhibited toxin production [2] [µg/mL]	further results
O=c1cc(NCCCN[C@@H]2CCOc3c(Br)cc(Br)cc32)[nH]c2ccsc12 [5-[3-((R)-6,8-Dibromo-chroman-4-ylamino)-propylamino]-4H-thieno[3,2-b]pyridine-7-one]	–	survival of infected hamsters ([1]; MetRS inhibitor at 5 to 50 mg/kg, untreated controls died within 3-4 days): best efficacy
Cc1ncsc1CCOc1c(Br)cc(Br)cc1CNCCCNc1cc(=O)c2sccc2[nH]1	0.25	–
Cl.Cl.O=c1cc(NCCCN[C@@H]2CCOc3c(Br)cc(Br)cc32)[nH]c2ccsc12 [R-(+)-5-[3-(6,8-Dibromo-chroman-4-ylamino)-propylamino]-4H-thieno[3,2-b]pyridin-7-one di-hydrochloride]	0.25	–
CN[C@H](CC(C)C)C(=O)N[C@H]1C(=O)N[C@@H](CC(N)=O)C(=O)N[C@H]2C(=O)N[C@H]3C(=O)N[C@H](C(=O)N[C@H](C(=O)O)c4cc(O)cc(O)c4-c4cc3ccc4O)[C@H](O)c3ccc(c(Cl)c3)Oc3cc2cc(c3O[C@@H]2O[C@H](CO)[C@@H](O)[C@H](O)[C@H]2O[C@H]2C[C@](C)(N)[C@H](O)[C@H](C)O2)Oc2ccc(cc2Cl)[C@H]1O [vancomycin, reference compound]	–	survival with vancomycin ([1]; Day 28, vancomycin at 2.5, 5 or 25 mg/kg): 0-10%
Cl.Cl.Cl.O=c1cc(NCCCNC2CCNc3c(Br)cc(Br)cc32)[nH]c2ccsc12 (stereo not drawn) [5-[3-(6,8-Dibromo-1,2,3,4-tetrahydro-quinolin-4-ylamino)-propylamino]-4H-thieno[3,2-b]pyridin-7-one tri-hydrochloride]	0.25	–
O=c1cc(NCCCNC2CCOc3c(Br)cc(Br)cc32)[nH]c2ccsc12 (stereo not drawn) [5-[3-(6,8-Dibromo-chroman-4-ylamino)-propylamino]-4H-thieno[3,2-b]pyridin-7-one]	0.25	–

Reference: US8697720B2 (Crestone, Inc., priority 2006, dated 2014)
